Structures can show the parent of a compound that is named as a salt.
Assays:
human 5-HT1A receptors = molecular target: T1, human 5-HT1A receptors (Homo sapiens, UniProt P08908); assay: [3H] 8-OH-DPAT displacement from the 5-HT1A serotonin receptor (CHO cells); assay type: binding; conditions: displacement of [3H] 8-OH-DPAT, CHO cells stably transfected with human 5-HT1A receptors; read-out: 5-HT1A Receptor Affinity KI
T1 construct: expressed in transfected cells; host or cells: CHO cells
T1 sequence (P08908 1-422): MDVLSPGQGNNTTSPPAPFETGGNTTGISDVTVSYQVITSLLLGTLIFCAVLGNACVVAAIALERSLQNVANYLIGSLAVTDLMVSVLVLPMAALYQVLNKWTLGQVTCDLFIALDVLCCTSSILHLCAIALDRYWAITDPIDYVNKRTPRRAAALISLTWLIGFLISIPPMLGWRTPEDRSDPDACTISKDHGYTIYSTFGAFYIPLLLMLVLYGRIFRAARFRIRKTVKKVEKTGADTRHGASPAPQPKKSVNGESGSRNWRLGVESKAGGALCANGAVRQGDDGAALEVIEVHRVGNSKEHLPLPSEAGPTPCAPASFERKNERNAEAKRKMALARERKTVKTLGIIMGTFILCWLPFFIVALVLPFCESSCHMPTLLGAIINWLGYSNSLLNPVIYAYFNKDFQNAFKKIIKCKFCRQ
From the text: High affinity for the serotonin 5-HT1A receptor was established by testing the claimed compound's ability to displace [^3H] 8-OH-DPAT (dipropylaminotetralin) from the 5-HT1A serotonin receptor following a modification of the procedure of Hall et al., J. Neurochem. 44, 1685 (1985) which utilizes CHO cells stably transfected with human 5-HT1A receptors.

[1] = molecular target: T2, cloned human 5-HT1A receptors (Homo sapiens, UniProt P08908); assay: 35S-GTPγS binding assay, antagonist activity versus 8-OH-DPAT; assay type: biochemical; conditions: reversal of 8-OH-DPAT-stimulated 35S-GTPγS binding; for IC50: membranes with cloned human 5-HT1A receptors, read-out: 5-HT1A Function IC50
T2 construct: expressed in transfected cells
T2 sequence (P08908 1-422): T1 sequence (P08908 1-422)
Method: Antagonist activity at 5-HT1A receptors was established by using a ^35S-GTPγS binding assay similar to that used by Lazareno and Birdsall (Br. J. Pharmacol. 109: 1120, 1993), in which the test compound's ability to affect the binding of ^35S-GTPγS to membranes containing cloned human 5-HT1A receptors was determined. Agonists produce an increase in binding whereas antagonists produce no increase but rather reverse the effects of the standard agonist 8-OH-DPAT. The test compound's maximum inhibitory effect is represented as the Imax, while its potency is defined by the IC50.

| Compound | melting point | Ki (human 5-HT1A receptors) | 5-HT1A Function Imax (maximum inhibitory effect) [1] | IC50 [1] |
| --- | --- | --- | --- | --- |
| Cc1ccc2c3c(ccc2n1)OCC(CN1C2CCC1CC(O)(c1cccc(C(F)(F)F)c1)C2)O3 (stereo not shown) (as salt: fumarate) (hydrate or solvate) [Example 2, 8-{[8-Methyl-2,3-dihydro[1,4]dioxino[2,3-f]quinolin-2-yl]methyl}-3-[3-(trifluoromethyl)phenyl]-8-azabicyclo[3.2.1]octan-3-ol] | 146 to 150 °C |  |  |  |
| Cc1ccc2c3c(ccc2n1)OCC(CN1C2CCC1CC(O)(c1ccc4ccccc4c1)C2)O3 (stereo not shown) (as salt: fumarate) (hydrate or solvate) [Example 3, 8-{[8-Methyl-2,3-dihydro[1,4]dioxino[2,3-f]quinolin-2-yl}methyl]-3-(2-naphthyl)-8-azabicyclo[3.2.1]octan-3-ol] | 218 to 218.5 °C |  |  |  |
| Cc1ccc2c3c(ccc2n1)OCC(CN1C2CCC1CC(O)(c1ccccc1)C2)O3 (stereo not shown) [Example 1, 8-{[8-Methyl-2,3-dihydro[1,4]dioxino[2,3-f]quinolin-2-yl]methyl}-3-phenyl-8-azabicyclo[3.2.1]octan-3-ol] | 162 to 165 °C | 2.59 nM | (98.0) | 6.85 nM |
| Cc1ccc2c3c(ccc2n1)OCC(CN1C2CCC1CC(O)(c1cccc(C(F)(F)F)c1)C2)O3 (stereo not shown) [Example 2, 8-{[8-Methyl-2,3-dihydro[1,4]dioxino[2,3-f]quinolin-2-yl]methyl}-3-[3-(trifluoromethyl)phenyl]-8-azabicyclo[3.2.1]octan-3-ol] |  | 6.81 nM |  |  |
| Cc1ccc2c3c(ccc2n1)OCC(CN1C2CCC1CC(O)(c1ccc4ccccc4c1)C2)O3 (stereo not shown) [Example 3, 8-{[8-Methyl-2,3-dihydro[1,4]dioxino[2,3-f]quinolin-2-yl}methyl]-3-(2-naphthyl)-8-azabicyclo[3.2.1]octan-3-ol] |  | 3.45 nM | (100) | 55.5 nM |
